Results from patent US6174888A, “2-amino-7-(1-substituted-2-hydroxyethyl)-3,5-dihydropyrrolo[3,2-D]pyrimidin -4-ones” (Novartis AG, priority 1998, dated 2001).

Experiments:
Human CCRF-CEM cells = experiment: potentiation of the cell growth inhibitory activity (cytotoxicity) of 2'-deoxyguanosine, CCRF-CEM cell assay; assay type: cell-based; details: d-Guo 10 μM, increase in cell number between 0 and 72 hours
Method: The selective suppression of spontaneous T-cell proliferation in vitro is measured by the potentiation of the cell growth inhibitory activity (cytotoxicity) of 2'-deoxyguanosine (d-Guo) by the compounds of the invention, determined as follows: Human CCRF-CEM cells are grown in RPMI-1640 medium. To suspension cultures of these cells, d-Guo at a fixed concentration (10 μM) and the candidate PNP inhibitor at varied concentrations are added and the number of cells are determined in a Coulter counter 24, 48, and 72 hours thereafter. […] This method is similar to that previously used to determine the effectiveness of PNP inhibitors on potentiation of the toxicity of d-Guo. [See D. A. Shewach et al., Cancer Res., 46, 519 (1986); J. C. Sircar et al., Agents and Actions, 21, 253 (1987), also Methods in Pharmacology, D. M. Paten, ed. 1985, pp. 147-162].

Calf spleen PNP = molecular target: T1, Calf spleen PNP (Bos taurus, UniProt P55859); experiment: PNP inhibition in vitro, colorimetric enzymic determination of inorganic phosphate (PNP and xanthine oxidase, substrate inosine); assay type: biochemical; details: 1 mM phosphate concentration
T1 construct: Calf spleen PNP is used as the enzyme source; from tissue; host or cells: calf spleen
T1 sequence (P55859 1-289): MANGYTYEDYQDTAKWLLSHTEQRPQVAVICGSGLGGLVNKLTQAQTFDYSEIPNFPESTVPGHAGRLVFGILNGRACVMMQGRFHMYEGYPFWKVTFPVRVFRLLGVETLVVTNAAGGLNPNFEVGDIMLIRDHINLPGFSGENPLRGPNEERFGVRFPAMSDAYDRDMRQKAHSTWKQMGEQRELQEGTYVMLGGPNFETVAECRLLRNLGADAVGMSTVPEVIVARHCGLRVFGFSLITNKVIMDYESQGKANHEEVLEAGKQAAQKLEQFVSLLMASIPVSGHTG
Method: PNP inhibition can also be determined in vitro as follows: An enzymic method for the determination of inorganic phosphate (see Chem. Pharm. Bull., 1981, 29:1451-5), based on the principle of forming hydrogen peroxide with purine nucleoside phosphorylase (PNP) and xanthine oxidase, is used to colorimetrically measure the degree of linkage between enzyme and substrate (inosine). Calf spleen PNP is used as the enzyme source. The IC50 values for the compounds studied are determined graphically at two phosphate concentrations (1 and 50 mM) from a plot of percent inhibition versus compound concentration.

PNP = PNP inhibition in vivo: increased plasma level of inosine in mice; details: 10 mg/Kg p.o.
Method: Briefly, mice are treated orally with the PNP inhibitor suspended in fortified cornstarch (3% cornstarch suspension in water with 0.33% Tween 80 and 5% PEG 400) at a final volume of 10 ml/kg. One or more hours after a single oral dose of compound, the mice are bled by cardiac puncture into 25 U/ml heparin to obtain plasma. The samples are analyzed for both inosine and drug levels by a gradient reverse-phase high performance liquid chromatography (HPLC) method (see Anal Chem, 1977, 49:2237-41). Quantitation is performed using an internal standard method with 2',3'-dideoxyinosine (DDI) as the internal standard.

[1] = test system: collagen II induced arthritis; experiment: collagen II induced arthritis in mice model; assay type: in vivo, mice (DBA/1LacJ); details: 20 mg/Kg/day, oral
Method: The antiarthritic activity can be determined in the collagen II induced arthritis in mice model. DBA/1LacJ female mice, 6-8 weeks old, are immunized with 100 μg of chicken type II collagen emulsified in Freund's complete adjuvant (FCA) by injecting at the base of the tail on day 0. On day 17 after collagen injection, the immune response to type II collagen is boosted with a subcutaneous injection of 200 μg LPS solubilized in PBS. Paws are examined on days 17, 21, 24, 28, 31, 35, and 42 and scored for the symptoms of arthritis based on criteria such as inflammation, swelling and ankylosis. Compounds are suspended in corn starch vehicle and administered orally to mice once daily beginning on day 1 and continuing through day 42.

transplant rejection = experiment: mouse tail skin transplant rejection model; assay type: in vivo, mouse (C57BL/10-SnJ and B10.BR/SgSnJ)
Text: Protection against transplant rejection can be determined in a mouse tail skin transplantation procedure.
Mice are anesthetized with tribromoethanol i.p. injection according to the method of Papaioannou and Fox (Lab. Animal Science 1993;43:189-92). The mouse tail skin transplant rejection model is a modification of that described by Baily and Usama, (Transpl. Bull. 1960;7:424-5). Four skin grafts per mouse are exchanged between strains [C57BL/10-SnJ (H-2K^b) and B10.BR/SgSnJ (H-2K^k)] at surgery (d0). Fitted skin grafts are made with a scalpel, and tail graft sites are protected with tubing for 2 days following surgery. Mouse tails are evaluated at day 7 for missing grafts. Only those graft sites that have patent grafts at day 7 are evaluated at later scoring intervals. Grafts are scored numerically for signs of rejection at ~weekly scoring intervals starting day 14. Dose-group mean graft scores are compared statistically.

Nc1nc2c([C@@H](CO)c3ccccc3)c[nH]c2c(=O)[nH]1 [3(f), 2-Amino-7-(2(S)-hydroxy-1-phenylethyl)-3,5-dihydro-4H-pyrrolo[3,2-d]-pyrimidin-4-one]
IC50 (Human CCRF-CEM cells): ~100 nM | IC50 (Calf spleen PNP): ~10 nM | increase in the plasma level of inosine (PNP): significant increase

Nc1nc2c([C@@H](CO)c3ccccc3F)c[nH]c2c(=O)[nH]1 [Example 1, 2-amino-7-[1-(2-flourophenyl)-2(R)-hydroxyethyl]-3,5-dihydro-4H-pyrrolo[3,2-d]pyrimidin-4-one]
IC50 (Human CCRF-CEM cells): ~75 nM | IC50 (Calf spleen PNP): ~10 nM | increase in the plasma level of inosine (PNP): significant increase | antiarthritic activity [1]: effective | protection against transplant rejection (transplant rejection; 50 mg/Kg/day, mouse): effective in protecting against transplant rejection | effect of combination with cyclosporin in the transplant rejection model (transplant rejection; combination of a compound of the invention, e.g. of example 1, and cyclosporin): superior to either cyclosporin or the PNP inhibitor alone
